Data on one compound can be found in patent US11155576B2, “Synthetic peptides, enzymatic formation of pericellular hydrogels/nanofibrils, and methods of use” (BRANDEIS UNIVERSITY, priority 2014, dated 2021).

Data set [1] relates to HeLa cells. The experiment in a line: Cell migration (wound healing) assay. Format: cell-based, human. Conditions: 18 hours. The protocol: Cell migration was evaluated using the wound healing assay with the CytoSelect™ Wound Healing Assay Kit (Cell Biolabs, Inc). Wound healing inserts with width at 0.9 mm were placed into 24-well plates. 0.8 mL of HeLa cells at 2×10^5 cells/mL were added to either side of the insert and incubated overnight to form a confluent layer. Inserts were then carefully removed to expose the gap. After removing the culture medium, new medium containing the molecules was added to cells. The cells were next incubated at 37° C., 5% CO2 for 18 hours. Images of gaps before and after the addition of the molecules were captured using a microscope at a magnification of ×40. Cell migration was quantified by measuring the change in gap distance.

For data set [2], the system named is Ect1/E6E7 cells. The data set can be described thus: Confocal microscopy, Congo red/DAPI staining, Ect1/E6E7. Format: cell-based, human. Conditions: 560 μM, 12 hours. The protocol:
Cells in exponential growth phase were seeded in a glass bottomed culture chamber at 2×10^4 cells/well. Cells were allowed to attach for 24 hours at 37° C., 5% CO2. […] Following 12 hours of incubation, cells were washed 3 times with PBS prior to being stained with 0.1 mg/mL Congo red and 0.6 μM DAPI in PBS buffer (30 minutes at 37° C. in the dark). Next, cells were rinsed three times with PBS, and then kept in PBS for imaging.
Ect1/E6E7 cells (immortalized normal human cervical epithelial cells, which have same tissue and organ origins as HeLa cells) were treated with the same procedure as described for HeLa cells above. […] The difference of hydrogel/nanonets formation by D-2a conversion to D-2b on HeLa cells and Ect1/E6E7 cells agrees with the notion that HeLa cells have higher levels of phosphatase activity than Ect1/E6E7 cells (FIG. 9).

Data set [3] concerns active Caspase 3. The experiment in a line: Apoptosis pathway assay (ELISA), active Caspase 3. Format: cell-based, human. Conditions: HeLa cells, 280 μM, at 24 and 32 hours of incubation. The protocol:
The apoptosis pathway was evaluated using the PathScan® Apoptosis Multi-Target Sandwich ELISA Kit (Cell Signaling Technology) following the supplied protocol. Cells in exponential growth phase were seeded in a 6 cm Petri dish at a concentration of 10×10^5 cells/dish (5 dishes). Cells were allowed to attach to the wells for 24 hours at 37° C., 5% CO2. The culture medium was removed and 5 mL medium containing 280 μM D-2a (immediately diluted from fresh prepared stock solution of 11.2 mM) was placed into each dish. At 0, 6, 12, 24, or 32 hours, the medium was removed and cells were washed three times with cold PBS buffer. 0.9 mL lysis buffer was used to lyse cells in each dish, and 0.9 mL of diluents buffer was used to dilute each of the cell lysate. The lysate was incubated in the provided 96 well plate at 4° C. for 24 hours.
ELISA was used to quantify the amount of several key apoptosis signal molecules over time in the HeLa cells incubated with 280 μM D-2a (FIG. 3E).
(ELISA stands for enzyme-linked immunosorbent assay.)

Data set [4] concerns HeLa cells. The experiment in a line: Confocal microscopy, Congo red/DAPI staining, HeLa. The data set is classed as cell-based, human. Conditions: 280 μM, 12 hours. The method, then: (§1) Cells in exponential growth phase were seeded in a glass bottomed culture chamber at 2×10^4 cells/well. Cells were allowed to attach for 24 hours at 37° C., 5% CO2. The culture medium was removed, and replaced with culture medium containing D-2a at 280 μM. Following 12 hours of incubation, cells were washed 3 times with PBS prior to being stained with 0.1 mg/mL Congo red and 0.6 μM DAPI in PBS buffer (30 minutes at 37° C. in the dark). Next, cells were rinsed three times with PBS, and then kept in PBS for imaging.
Pericellular nanofibrils and cellular nuclei can be visualized using Congo red and DAPI, respectively (Kapuscinski, Biotech. Histochem. 70:220-233 (1995); Binder et al., Angew. Chem. Int. Ed. 45:7324-7328 (2006), each of which is hereby incorporated by reference in its entirety).

Data set [5] has as its system HeLa cells. The data set can be described thus: Negative stained TEM of pericellular hydrogel on HeLa cells. The data set is classed as physicochemical, human. Conditions: HeLa cells treated with 280 μM D-2a. The protocol: Carbon coated copper grids were glow-discharged to increase their hydrophilicity prior to use. Pericellular hydrogel/nanofibrils were obtained by incubating D-2a at 280 μM with HeLa cells for 2 hours. Cell culture medium was removed in order to expose the pericellular hydrogel. The carbon coated side of the grid was gently pressed onto the pericellular hydrogel for 1 second. Next, the sample-loaded surface was washed using a drop of ddH2O. To remove excess water from the grid, the edge of the grid was immediately tilted and blotted three times against a filter paper. The grid was stained by letting the grid touch a drop of 2.0% (w/v) uranyl acetate with the sample-loaded surface. Excessive stain solution was removed by gently touching the grid with a drop of ddH2O. The grid was then dried by touching the edge of the grid with a filter paper for 3 times. The grid was air dried for a few minutes and examined immediately.
That is, the nanofibrils form nanonets. Similar to the nanofibrils of D-2b formed by the addition of ALP into the solution of D-2a in PBS buffer (FIG. 7), these cell-surface nanofibrils entangle with each other to form the matrices of the hydrogel.

Data set [6] relates to MES-SA cells. The experiment in a line: Pericellular hydrogel/nanonets on MES-SA cells (Congo red/DAPI). Format: cell-based. Conditions: 280 μM, 12 hours. The method, then: FIG. 11 illustrates overlaid and 3D stacked z-scan images of Congo red and DAPI stained MES-SA and MES-SA/Dx5 cells treated with either 280 μM D-2a (upper panel) or medium alone (control, lower panel) for 12 hours. Scale bar=[…]. White dots outline the cells.
as §1

Data set [7] deals with HeLa cells. The data set can be described thus: LC-MS composition of pericellular hydrogel/nanofibrils and suspension medium of HeLa cells. The data set is classed as in vitro ADME, human.
Data set [8] deals with phosphatases. The data set can be described thus: Phosphatase activity assay of gel, suspension and control medium of HeLa cells. Format: cell-based, human. Conditions: HeLa cells treated with 560 μM D-2a, after removing the hydrogel. The method, then:
Phosphatase activity was evaluated by the alkaline phosphatase assay using the Abcam Alkaline Phosphatase Assay Kit following the supplied protocol. In brief, 50 μL of 5 mM pNPP solution in assay buffer was mixed with 80 μL of the sample solutions in 96 well plate. The mixed solution was incubated at 25° C., protected from light. 20 μL of stop solution was added to each test and the OD at 405 nm of the solution was measured in a microplate reader.
To verify whether the pericellular hydrogel/nanonets block the entry of secretory proteins/enzymes into the culture medium, the amount of phosphatases in four experimental samples was evaluated: blank medium (Blank), medium incubated with untreated HeLa cells (Control), the pericellular hydrogel from HeLa cells treated with 560 μM D-2a for 12 hours (Gel), and the suspension of the medium of HeLa cells treated with D-2a after removing the hydrogel (Suspension). The amount of phosphatases accumulated in the Gel is about 27 times higher than that found in the Control (FIG. 3B). […] In other words, the pericellular hydrogel/nanonets largely block cellular mass exchange between the cells and their environment.

The mark [9] stands for this setting: HeLa cells incubated with precursor at 560 μM at 37° C. for 12 hours.

Take `O=C(Cc1ccc2ccccc2c1)N[C@H](Cc1ccccc1)C(=O)N[C@H](Cc1ccccc1)C(=O)N[C@H](Cc1ccc(OP(=O)(O)O)cc1)C(=O)O` [D-2a, Nap-D-Phe-D-Phe-D-Tyr(PO3H2)]: the “Cell migration (gap)” value in data set [1] (280 μM) was “gaps larger than those of untreated cells”. In data set [1] (560 μM), the “Cell migration (gap)” value is recorded as “gaps larger than those of untreated cells”. Moreover, in data set [2], the “Congo red fluorescence on cells” value was “hardly display any red fluorescence” and the “DAPI entry into cells” value was “DAPI stains the nuclei”. The “Amount of active Caspase 3” value in data set [3] was “increase significantly”. Moreover, in data set [4], the “Congo red fluorescence on cells” value was “fluorescence (red) that outlines the cell shape” and the “DAPI entry into cells” value is “DAPI is unable to enter”. Moreover, in data set [5], the “Diameter of nanofibrils of the pericellular hydrogel” value is “about 20 nm”. Also, the Pericellular hydrogel/nanonets formation result in data set [6] is recorded as “forms pericellular hydrogel/nanonets”. Moreover, in data set [7] (setting [9]), the “D-2b in pericellular hydrogel” value amounted to 2053.9 µM and the “D-2b in suspension medium” value was 502.5 µM. Moreover, the “Concentration of D-2b in the hydrogel (LC-MS)” value in data set [7] (hydrogel of FIG. 2A, HeLa monolayers treated with 500 μM D-2a as printed) is given as “approximately 2.05 mM”. The “Amount of phosphatases in the Suspension relative to the Control” value in data set [8] is reported as “significantly lower than that in the Control”.
